Molecules are shown by their SMILES. Like-named read-outs stand apart in the source and are kept apart here.

Common to all, as to format: cell-based
One experiment relates to OE33 cells. Nature of the experiment: Inhibitory activity on cancer cell growth (CCK-8, 72 h), OE33 cells. The settings on record: Homo sapiens, OE33, 72 h, human esophageal cancer cells OE33, 72 h incubation. The protocol: (§1) Human esophageal cancer cells OE33, human breast adenocarcinoma cells SK-BR-3 and human gastric cancer cells NCI-N87 were cultured in RPMI1640 (Cellmax) supplemented with 10% fetal bovine serum (Cellmax) respectively. Cells in the exponential growth phase were diluted to a concentration of 1×10^5cells/mL by culture medium and added to 96-well cell culture plates at 100µL per well, then incubated overnight in a 37°C incubator with 5% CO2. On the following day, the test compounds and control compounds were diluted to concentrations of 10000 nM, 2000 nM, 400 nM, 80 nM, 16 nM, 3.2 nM, 0.64 nM, and 0.13 nM by culture medium and added to the 96-well cell culture plates at 2µL per well, with three replicate wells for each concentration. Negative control and blank control groups without the addition of compounds were supplemented with 2µL of the dilution liquid per well. After the addition of the compounds, the plates were returned to the 37°C incubator with 5% CO2 to continue incubation for 72 h. After incubation, the cell culture plates were removed, and the culture medium was aspirated using a pipette. Then, 100µL of culture medium containing 10% CCK-8 was added to each well, and the plates were incubated at 37°C for 3 h. After incubation, the plates were removed, kept in the dark, and placed in ELISA plate. Absorbance was measured at 630nm as the reference wavelength and 450nm as the test wavelength. The IC50 values (Tables 1-3) were calculated using the four-parameter logistic regression method in GraphPad, based on the absorbance values. SN38 (7-ethyl-10-hydroxycamptothecin) and 10CPT (10-hydroxycamptothecin) were used as control compounds. For the IC50 values, wherein "++++" indicates an IC50 < 50 nM; "+++" indicates an IC50 between 50 nM and 100 nM; "++" indicates an IC50 between 100 nM and 500 nM; and "+" indicates an IC50 > 500 nM. Table 1: Inhibitory activity of compounds to inhibit the growth of OE33 cells

The test system of the next experiment is SK-BR-3 cells. Nature of the experiment: Inhibitory activity on cancer cell growth (CCK-8, 72 h), SK-BR-3 cells. The settings on record: Homo sapiens, SK-BR-3, 72 h, human breast adenocarcinoma cells SK-BR-3, 72 h incubation. The protocol: as §1
The subject of a further experiment is NCI-N87 cells. Nature of the experiment: Inhibitory activity on cancer cell growth (CCK-8, 72 h), NCI-N87 cells. Particulars: Homo sapiens, NCI-N87, 72 h, human gastric cancer cells NCI-N87, 72 h incubation. How it is done: as §1
The mark [1] stands for this setting: numeric value or bound, read-out: IC50.

For `CC[C@@]1(O)C(=O)OCc2c1cc1n(c2=O)Cc2cc3c(CN(C)C4CC4)c(O)ccc3nc2-1` [Compound 17, 9-(N-methyl-N-cyclopropylamine)methyl-10-hydroxycamptothecin], the IC50 in the experiment with OE33 cells (setting [1]) is below 100 nM; in the experiment with OE33 cells (read-out: IC50), 50 to 100 nM; with SK-BR-3 cells (bound stated, read-out: IC50), below 100 nM; in the experiment on SK-BR-3 cells (read-out: IC50), 50 to 100 nM; in the experiment on NCI-N87 cells (bound stated, read-out: IC50), below 100 nM; in the experiment with NCI-N87 cells (read-out: IC50), below 50 nM.
As for `CCN(C)Cc1c(O)ccc2nc3c(cc12)Cn1c-3cc2c(c1=O)COC(=O)[C@]2(O)CC` [Compound 19, 9-(N-methylethylamine)methyl-10-hydroxycamptothecin], the IC50 was 50 to 100 nM in the experiment on OE33 cells; below 100 nM in the experiment with OE33 cells (numeric value or bound); 50 to 100 nM in the experiment on SK-BR-3 cells; below 100 nM in the experiment on SK-BR-3 cells (bound stated); below 50 nM with NCI-N87 cells; below 100 nM in the experiment on NCI-N87 cells (bound stated).
In the case of `CC[C@@]1(O)C(=O)OCc2c1cc1n(c2=O)Cc2cc3c(CN(C)C(C)C)c(O)ccc3nc2-1` [Compound 10, 9-(N-methyl-N-isopropylamino)methyl-10-hydroxycamptothecin], the IC50 was below 100 nM in the experiment on OE33 cells (setting [1]); 50 to 100 nM with OE33 cells (read-out: IC50); below 100 nM in the experiment on SK-BR-3 cells (bound stated, read-out: IC50); 50 to 100 nM with SK-BR-3 cells (read-out: IC50); below 100 nM in the experiment on NCI-N87 cells (bound stated, read-out: IC50); below 50 nM in the experiment on NCI-N87 cells (read-out: IC50).
Consider `CC[C@@]1(O)C(=O)OCc2c1cc1n(c2=O)Cc2cc3c(CNC(C)C)c(O)ccc3nc2-1` [Compound 21, 9-(isopropylamine)methyl-10-hydroxycamptothecin], for which the IC50 in the experiment with OE33 cells (read-out: IC50) and in the experiment on SK-BR-3 cells (read-out: IC50) was 100 to 500 nM each time.
Turning to `CC[C@@]1(O)C(=O)OCc2c1cc1n(c2=O)Cc2cc3c(CN4CCN(C(=O)OC)CC4)c(O)ccc3nc2-1` [Compound 9, 9-(1-(4-methoxycarbonylpiperazine))methyl-10-hydroxycamptothecin], the results for the IC50 with OE33 cells (read-out: IC50), with SK-BR-3 cells (read-out: IC50) and with NCI-N87 cells (read-out: IC50) were 100 to 500 nM, 50 to 100 nM and below 50 nM, respectively.
On to `CC[C@@]1(O)C(=O)OCc2c1cc1n(c2=O)Cc2cc3c(CN4CCC(N)CC4)c(O)ccc3nc2-1` [Compound 1, 9-(1-(4-aminopiperidine))methyl-10-hydroxycamptothecin], for which the IC50 lay in the range of 100 to 500 nM in the experiment with OE33 cells (read-out: IC50) and 50 to 100 nM in the experiment with SK-BR-3 cells (read-out: IC50).

The values are drawn from patent EP4541797A1, “CAMPTOTHECIN DERIVATIVE, METHOD FOR PREPARING SAME, AND USE THEREOF” (Hangzhou Adcoris Biopharma Co., Ltd, priority 2022, dated 2024).
